Experiments:
[1] = system: spontaneously contracting cell aggregates (certain channels in the heart: potassium and calcium channels); assay: Drug tests on the cell aggregates (electrophysiology, intracellular derivation with a sharp electrode); type: cell-based, Rainbow trouts (Oncorhynchus mykiss, Walbaum); settings: for reaction of the aggregates on drugs which influence certain channels in the heart: FIG. 10; for recovery of the aggregates after the drug testing: medium change
Procedure: FIG. 10 Effect of cardiac drugs on the cell aggregates; A: isoproterenol (calcium channel agonist); B: rilmakalim ([…])
The electrophysiology is important for the use of the cell aggregates as a test system in pharmacology. Measurement of the electric activity was performed by means of extracellular measurement via MEA (multi-electrode array) and intracellular measurement via a sharp electrode.
The properties of action potentials and the examination on certain channels (potassium and calcium channels) were carried out with a sharp electrode.
The reaction of the aggregates on drugs which influence certain channels in the heart is of importance for the functionality as a test model. […] Examinations were carried out with isoproterenol (calcium channel agonist) (FIG. 10A) and rilmakalim ([…]).

[2] = system: spontaneously contracting cell aggregate; assay: Reaction of cell aggregates on the addition of potassium (light microscope, video recordings); type: cell-based, Rainbow trouts (Oncorhynchus mykiss, Walbaum)
Procedure: The reaction of a cell aggregate which had already contracted for 16 days in culture on potassium could be tested in another experiment. It was shown under a light microscope (Axiovert 40C; Zeiss, Germany) with video recordings that the beating frequency of this aggregate increased from 66 beats per minute to 72 beats per minute over a period of 10 minutes. After these 10 minutes, a 1.75 mM potassium chloride solution was added. […] After removing the medium containing the 1.75 mM KCl solution and replacing it with fresh DMEM/20% FBS, the cell aggregate began to beat again after 2 minutes. However, the beating frequency was at first only 16 beats per minute which recovered to the original frequency within the next three days.

| Structure (SMILES) | reaction of the aggregates on drugs which influence certain channels in the heart [1] | recovery of the aggregates after the drug testing [1] | contraction speed of the aggregate after adding the KCl solution ([2]; 1.75 mM potassium chloride solution, aggregate 16 days contracting in culture, for 6 seconds after addition, baseline 66-72 beats per minute) | time after addition until contraction stopped ([2]; 1.75 mM potassium chloride solution, no more contractions observed) | beating frequency at first after medium replacement ([2]; after removal of 1.75 mM KCl, recovered to the original frequency within the next three days) | time until the cell aggregate began to beat again after replacing medium ([2]; after removing medium containing 1.75 mM KCl and replacing with fresh DMEM/20% FBS) |
| --- | --- | --- | --- | --- | --- | --- |
| CC1(C)Oc2ccc(S(=O)(=O)c3ccccc3)cc2[C@@H](N2CCCC2=O)[C@@H]1O [rilmakalim] | in the same manner as the human heart | recover after the drug testing by means of a medium change |  |  |  |  |
| CC(C)NCC(O)c1ccc(O)c(O)c1 (centres unmarked) [isoproterenol] | in the same manner as the human heart | recover after the drug testing by means of a medium change |  |  |  |  |
| [Cl-].[K+] [potassium chloride] |  |  | triple the speed as before | 10 s | 16 beats per minute | 2 min |

Reference: US8735151B2, “Spontaneously contracting fish cell aggregates, use thereof and method for the production thereof” (Fraunhofer-Gesellschaft zur Foerderung der Angewandten …, priority 2009, dated 2014)
